Data taken from PMC10035947, “Development of novel anilinoquinazoline-based carboxylic acids as non-classical carbonic anhydrase IX and XII inhibitors” (Journal of Enzyme Inhibition and Medicinal Chemistry, 2023).

What was measured:
SF-539 = assay: NCI SRB assay; assay type: cell-based, human; settings: for GI%: SF-539, 10 μM; for Growth Percent: SF-539, 1.00E-5 Molar
ACHN = assay: NCI SRB assay; assay type: cell-based, human; settings: for GI%: 10 μM; for Growth Percent: 1.00E-5 Molar
IGROV1 = assay: NCI SRB assay; assay type: cell-based, human; settings: for GI%: IGROV1, 10 μM; for Growth Percent: IGROV1, 1.00E-5 Molar
HOP-92 = assay: NCI SRB assay; assay type: cell-based, human; settings: for GI%: HOP-92, 10 μM; for Growth Percent: HOP-92, 1.00E-5 Molar
UACC-62 = assay: NCI SRB assay; assay type: cell-based, human; settings: for GI%: UACC-62, 10 μM; for Growth Percent: UACC-62, 1.00E-5 Molar
SK-MEL-2 = assay: NCI SRB assay; assay type: cell-based, human; settings: for GI%: SK-MEL-2, 10 μM; for Growth Percent: SK-MEL-2, 1.00E-5 Molar
MDA-MB-435 = assay: NCI SRB assay; assay type: cell-based; settings: for GI%: MDA-MB-435, 10 μM; for Growth Percent: MDA-MB-435, 1.00E-5 Molar
HS 578 T = assay: NCI SRB assay; assay type: cell-based, human; settings: for GI%: HS 578 T, 10 μM; for Growth Percent: HS 578T, 1.00E-5 Molar
T-47D = assay: NCI SRB assay; assay type: cell-based, human; settings: for GI%: 10 μM; for Growth Percent: 1.00E-5 Molar
HL-60(TB) = assay: NCI SRB assay; assay type: cell-based, human; settings: HL-60(TB); for GI%: 10 μM; for Growth Percent: 1.00E-5 Molar
KM12 = assay: NCI SRB assay; assay type: cell-based, human; settings: for GI%: KM12, 10 μM; for Growth Percent: KM12, 1.00E-5 Molar
HCT-15 = assay: NCI SRB assay; assay type: cell-based, human; settings: for GI%: HCT-15, 10 μM; for Growth Percent: HCT-15, 1.00E-5 Molar
U251 = assay: NCI SRB assay; assay type: cell-based, human; settings: for GI%: U251, 10 μM; for Growth Percent: U251, 1.00E-5 Molar
COLO 205 = assay: NCI SRB assay; assay type: cell-based, human; settings: for GI%: COLO 205, 10 μM; for Growth Percent: COLO 205, 1.00E-5 Molar
RPMI-8226 = assay: NCI SRB assay; assay type: cell-based, human; settings: for GI%: RPMI-8226, 10 μM; for Growth Percent: RPMI-8226, 1.00E-5 Molar
[1] = tested on: 59 human cancer cell lines representing nine tumour subpanels; assay: NCI SRB assay, panel and subpanel summaries; settings: all cell lines; for Mean GI %: 10 μM; for Mean Growth Percent: 1.00E-5 Molar
CAKI-1 = assay: NCI SRB assay; assay type: cell-based, human; settings: for GI%: CAKI-1, 10 μM; for Growth Percent: CAKI-1, 1.00E-5 Molar
TK-10 = assay: NCI SRB assay; assay type: cell-based, human; settings: for GI%: TK-10, 10 μM; for Growth Percent: TK-10, 1.00E-5 Molar
UACC-257 = assay: NCI SRB assay; assay type: cell-based, human; settings: for GI%: UACC-257, 10 μM; for Growth Percent: UACC-257, 1.00E-5 Molar
NCI-H322M = assay: NCI SRB assay; assay type: cell-based, human; settings: for GI%: 10 μM; for Growth Percent: 1.00E-5 Molar
OVCAR-4 = assay: NCI SRB assay; assay type: cell-based, human; settings: for GI%: OVCAR-4, 10 μM; for Growth Percent: OVCAR-4, 1.00E-5 Molar
SK-MEL-28 = assay: NCI SRB assay; assay type: cell-based, human; settings: for GI%: SK-MEL-28, 10 μM; for Growth Percent: SK-MEL-28, 1.00E-5 Molar
HT29 = assay: NCI SRB assay; assay type: cell-based, human; settings: for GI%: HT29, 10 μM; for Growth Percent: HT29, 1.00E-5 Molar
HCC-2998 = assay: NCI SRB assay; assay type: cell-based, human; settings: for GI%: HCC-2998, 10 μM; for Growth Percent: HCC-2998, 1.00E-5 Molar
SNB-19 = assay: NCI SRB assay; assay type: cell-based, human; settings: for GI%: SNB-19, 10 μM; for Growth Percent: SNB-19, 1.00E-5 Molar
SF-268 = assay: NCI SRB assay; assay type: cell-based, human; settings: for GI%: SF-268, 10 μM; for Growth Percent: SF-268, 1.00E-5 Molar
NCI-H460 = assay: NCI SRB assay; assay type: cell-based, human; settings: for GI%: NCI-H460, 10 μM; for Growth Percent: NCI-H460, 1.00E-5 Molar
SNB-75 = assay: NCI SRB assay; assay type: cell-based, human; settings: for GI%: SNB-75, 10 μM; for Growth Percent: SNB-75, 1.00E-5 Molar

Cc1ccc(-c2nc(Nc3cccc(C(=O)O)c3)c3ccccc3n2)cc1 [7b, 3-((2-(p-Tolyl)quinazolin-4-yl)amino)benzoic acid] was tested, and the GI% (SF-539) was 27%, the “Growth Percent” value (SF-539) was 73.18% and the GI% (ACHN) was 24%. For the same compound, the “Growth Percent” value (ACHN) was 76.34%, the GI% (IGROV1) was “– (Only GI% higher than 20% are shown)” and the “Growth Percent” value (IGROV1) was 107.30%. The GI% (HOP-92) was 29%, the “Growth Percent” value (HOP-92) was 71.46% and the GI% (UACC-62) was “– (Only GI% higher than 20% are shown)”. The “Growth Percent” value (UACC-62) was 87.74%, the GI% (SK-MEL-2) was “– (Only GI% higher than 20% are shown)” and the “Growth Percent” value (SK-MEL-2) was 112.04%. For the same compound, the GI% (MDA-MB-435) was “– (Only GI% higher than 20% are shown)”, the “Growth Percent” value (MDA-MB-435) was 100.82% and the GI% (HS 578 T) was 34%. The “Growth Percent” value (HS 578 T) was 65.83%, the GI% (T-47D) was “– (Only GI% higher than 20% are shown)” and the “Growth Percent” value (T-47D) was 83.81%. The GI% (HL-60(TB)) was “– (Only GI% higher than 20% are shown)”, the “Growth Percent” value (HL-60(TB)) was 85.11% and the GI% (KM12) was 32%. For the same compound, the “Growth Percent” value (KM12) was 68.03%, the GI% (HCT-15) was 55% and the “Growth Percent” value (HCT-15) was 45.38%. For the same compound, the GI% (U251) was 21%, the “Growth Percent” value (U251) was 78.70% and the GI% (COLO 205) was “– (Only GI% higher than 20% are shown)”. The “Growth Percent” value (COLO 205) was 124.60%, the GI% (RPMI-8226) was 29% and the “Growth Percent” value (RPMI-8226) was 70.78%. For the same compound, the “Mean GI %” value [1] was 14%, the “Mean Growth Percent” value [1] was 86.13% and the GI% (CAKI-1) was “– (Only GI% higher than 20% are shown)”. For the same compound, the “Growth Percent” value (CAKI-1) was 82.90%, the GI% (TK-10) was “– (Only GI% higher than 20% are shown)” and the “Growth Percent” value (TK-10) was 115.15%. The GI% (UACC-257) was “– (Only GI% higher than 20% are shown)”, the “Growth Percent” value (UACC-257) was 111.51% and the GI% (NCI-H322M) was “– (Only GI% higher than 20% are shown)”. The “Growth Percent” value (NCI-H322M) was 99.74%, the GI% (OVCAR-4) was 23% and the “Growth Percent” value (OVCAR-4) was 77.91%. The GI% (SK-MEL-28) was “– (Only GI% higher than 20% are shown)”, the “Growth Percent” value (SK-MEL-28) was 97.02% and the GI% (HT29) was “– (Only GI% higher than 20% are shown)”. The “Growth Percent” value (HT29) was 105.90%, the GI% (HCC-2998) was “– (Only GI% higher than 20% are shown)” and the “Growth Percent” value (HCC-2998) was 94.40%. The GI% (SNB-19) was 28%, the “Growth Percent” value (SNB-19) was 71.76% and the GI% (SF-268) was 31%. For the same compound, the “Growth Percent” value (SF-268) was 69.32%, the GI% (NCI-H460) was “– (Only GI% higher than 20% are shown)” and the “Growth Percent” value (NCI-H460) was 97.53%. The GI% (SNB-75) was “– (Only GI% higher than 20% are shown)” and the “Growth Percent” value (SNB-75) was 91.06%.
For Cc1cccc(-c2nc(Nc3ccc(C(=O)O)cc3)c3ccccc3n2)c1 [8a, 4-((2-(m-Tolyl)quinazolin-4-yl)amino)benzoic acid], the GI% (SF-539) was “– (Only GI% higher than 20% are shown)”, the “Growth Percent” value (SF-539) was 91.50% and the GI% (ACHN) was “– (Only GI% higher than 20% are shown)”. For the same compound, the “Growth Percent” value (ACHN) was 85.41%, the GI% (IGROV1) was “– (Only GI% higher than 20% are shown)” and the “Growth Percent” value (IGROV1) was 110.06%. The GI% (HOP-92) was 29%, the “Growth Percent” value (HOP-92) was 71.13% and the GI% (UACC-62) was “– (Only GI% higher than 20% are shown)”. For the same compound, the “Growth Percent” value (UACC-62) was 104.52%, the GI% (SK-MEL-2) was “– (Only GI% higher than 20% are shown)” and the “Growth Percent” value (SK-MEL-2) was 123.11%. For the same compound, the GI% (MDA-MB-435) was “– (Only GI% higher than 20% are shown)”, the “Growth Percent” value (MDA-MB-435) was 96.58% and the GI% (HS 578 T) was 48%. The “Growth Percent” value (HS 578 T) was 51.51%, the GI% (T-47D) was 22% and the “Growth Percent” value (T-47D) was 77.59%. The GI% (HL-60(TB)) was “– (Only GI% higher than 20% are shown)”, the “Growth Percent” value (HL-60(TB)) was 92.72% and the GI% (KM12) was 23%. The “Growth Percent” value (KM12) was 76.63%, the GI% (HCT-15) was 29% and the “Growth Percent” value (HCT-15) was 70.54%. For the same compound, the GI% (U251) was 27%, the “Growth Percent” value (U251) was 72.61% and the GI% (COLO 205) was “– (Only GI% higher than 20% are shown)”. The “Growth Percent” value (COLO 205) was 135.98%, the GI% (RPMI-8226) was 30% and the “Growth Percent” value (RPMI-8226) was 70.27%. The “Mean GI %” value [1] was 16%, the “Mean Growth Percent” value [1] was 84.51% and the GI% (CAKI-1) was “– (Only GI% higher than 20% are shown)”. For the same compound, the “Growth Percent” value (CAKI-1) was 94.53%, the GI% (TK-10) was “– (Only GI% higher than 20% are shown)” and the “Growth Percent” value (TK-10) was 91.50%. The GI% (UACC-257) was “– (Only GI% higher than 20% are shown)”, the “Growth Percent” value (UACC-257) was 101.78% and the GI% (NCI-H322M) was “– (Only GI% higher than 20% are shown)”. For the same compound, the “Growth Percent” value (NCI-H322M) was 103.28%, the GI% (OVCAR-4) was “– (Only GI% higher than 20% are shown)” and the “Growth Percent” value (OVCAR-4) was 83.42%. For the same compound, the GI% (SK-MEL-28) was “– (Only GI% higher than 20% are shown)”, the “Growth Percent” value (SK-MEL-28) was 96.84% and the GI% (HT29) was “– (Only GI% higher than 20% are shown)”. For the same compound, the “Growth Percent” value (HT29) was 91.72%, the GI% (HCC-2998) was 24% and the “Growth Percent” value (HCC-2998) was 75.96%. The GI% (SNB-19) was 33%, the “Growth Percent” value (SNB-19) was 67.24% and the GI% (SF-268) was 37%. The “Growth Percent” value (SF-268) was 62.51%, the GI% (NCI-H460) was 22% and the “Growth Percent” value (NCI-H460) was 78.01%. The GI% (SNB-75) was “– (Only GI% higher than 20% are shown)” and the “Growth Percent” value (SNB-75) was 100.40%.
